We go through 21 substances from US7435721B2, “Transport peptides such as C-terminal Erns peptide and analogues thereof” (Pepscan Systems B.V., priority 2000, dated 2008).

No end group written: not given here. *: point of attachment. Biotin = O=C1N[C@H]2[C@H](CS[C@H]2CCCCC(=O)*)N1

The first experiment concerns live cells in suspension or subconfluent monolayers. The class given is cell-based.
Conditions: not given
With “Biotin-KRIPNKKPGKKTTTKPTKKPTIK-NH2 [MDP-08]”, the “Concentration (translocation activity of transport peptides)” value came to 0.3 µM.

For the substance “Biotin-QTRRRERRAEKQAQW-NH2 [Bacteriophage lambda N peptide]”, the “Concentration (translocation activity of transport peptides)” value was found to be 1.0 µM. As to Biotin-KRIPNKKPKK [MDS-36], the “Concentration (translocation activity of transport peptides)” value turned out to be 0.03 µM. For Biotin-KSICKTIPSNKPKKK-NH2 [MDP-21], the “Concentration (translocation activity of transport peptides)” value is 1.0 µM.

For Biotin-GRQLRRAGRRLRGRSR-NH2 [MDM-25], the “Concentration (translocation activity), optimization of E^rns peptide” value worked out at 0.1 µM. Biotin-KLIKGRTPIKFGKADCDRPPKHSQNGK-NH2: the “Concentration (translocation activity), mapping of restrictocin L3 loop” value (from here on “Concentration … of restrictocin L3 loop”) worked out at 0.3 µM. In the case of “Biotin-KLIKGRTPIKFGKADCDRPPKHSQNGMGK-NH2”, the “Concentration … of restrictocin L3 loop” value was determined as 0.3 µM. Regarding “Biotin-DRRRRGSRPSGAERRRRRAAAA-NH2 [RSG-1.2]”, the “Concentration (translocation activity of transport peptides)” value stood at 0.1 µM. In the case of Biotin-KKPTIKTTKK-NH2 [MDS-37], the “Concentration (translocation activity of transport peptides)” value was found to be 0.3 µM.

For “MAGAININ (GIGKFLHSAGKFGKAFVGEIMKS; also: biotinylated (site not given here)) [reference compound]”, the “Translocation activity (in words)” value is recorded as “did not”. Biotin-KRPAAIKKAGQAKKKK-NH2 [Bipartite]: the “Concentration (translocation activity of transport peptides)” value is 0.1 µM. Turning to Biotin-KGRTPIKFGKADCDRPPKHSQNGMGK-NH2, the “Concentration … of restrictocin L3 loop” value was determined as 3.0 µM. Regarding “Biotin-NRTRRNRRRVR-NH2 [Flockhouse virus peptide]”, the “Concentration (translocation activity of transport peptides)” value was 0.03 µM. On the same count and under the same terms, as for Biotin-KRIPNKKPGKKTTTKPTKK-NH2 [MDP-19], the figure is 0.3 µM; as for Biotin-KRIPNKKPGKKT-NH2 [MDP-32], 0.03 µM; as for Biotin-KTIPSNKPKKK-NH2 [MDS-35], 0.1 µM. Same read-out and setting: as for Biotin-KRIPNKKPGKK-NH2 [MDS-34], the figure is 0.03 µM. Biotin-KLIKGRTPIKFGKARCRRPPKHSGK-NH2: the “Concentration … of restrictocin L3 loop” value turned out to be 0.3 µM. Consider Biotin-KCPSRRPKR-NH2 [Alpha virus E3], for which the “Concentration (translocation activity of transport peptides)” value worked out at 3.0 µM.

The same experiment, now with this note: Table 9; lower concentration = higher translocation activity.
With Rhodamine-GRQLRIAGRRLRGRSR-NH2 [A931], the “Concentration (translocation activity), optimization of E^rns peptide” value came to 3.0 µM.

Staying with this experiment, now noted: Table 11.
Consider “Bioton-KRIPNKKPGKKTTTKPTKKPTIKTTKK-NH2 [MDP-04]”, for which the “Concentration (translocation activity of transport peptides)” value worked out at 0.3 µM.
